Assay results: ChEMBL document CHEMBL1201862, “PubChem BioAssay data set” (2004)
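These data come from cells grown in 96-well plates and exposed to compound for 48 hours at five concentrations. GI50 marks 50% less growth.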 Calls of active or inactive are those of the source. Rule as the data show it: active = GI50 up to about 1.1 µM and inactive = higher.

What was measured:
Test in all cases: inhibition of tumour cell growth, NCI panel, 48 h
EKVX = system: EKVX
MOLT-4 = system: MOLT-4
SNB-19 = system: SNB-19
NCI-H522 = system: NCI-H522
TK-10 = system: TK-10
MCF7 = system: MCF7
HOP-62 = system: HOP-62
M14 = system: M14
NCI-H226 = system: NCI-H226
NCI-H23 = system: NCI-H23
COLO 205 = system: COLO 205
IGROV-1 = system: IGROV-1
SF-539 = system: SF-539
Hs-578T = system: Hs-578T
SK-OV-3 = system: SK-OV-3
SK-MEL-2 = system: SK-MEL-2
SF-268 = system: SF-268
Malme-3M = system: Malme-3M
RPMI-8226 = system: RPMI-8226
OVCAR-3 = system: OVCAR-3
NCI-H460 = system: NCI-H460
SW-620 = system: SW-620
HOP-92 = system: HOP-92
A549 = system: A549
CCRF-CEM = system: CCRF-CEM
ACHN = system: ACHN
HCT-116 = system: HCT-116
HCT-15 = system: HCT-15
SK-MEL-28 = system: SK-MEL-28
LOX IMVI = system: LOX IMVI
SR = system: SR
BT-549 = system: BT-549
OVCAR-5 = system: OVCAR-5
SNB-75 = system: SNB-75
UO-31 = system: UO-31
OVCAR-8 = system: OVCAR-8
K562 = system: K562
SF-295 = system: SF-295
HL-60 = system: HL-60
SK-MEL-5 = system: SK-MEL-5
UACC-62 = system: UACC-62
786-0 = system: 786-0
HT-29 = system: HT-29
RXF 393 = system: RXF 393
OVCAR-4 = system: OVCAR-4
MDA-MB-435 = system: MDA-MB-435
U-251 = system: U-251
PC-3 = system: PC-3
MDA-N = system: MDA-N
UACC-257 = system: UACC-257
SN12C = system: SN12C
KM12 = system: KM12
MDA-MB-231 = system: MDA-MB-231
A498 = system: A498
HCC 2998 = system: HCC 2998
DU-145 = system: DU-145
T47D = system: T47D
CAKI-1 = system: CAKI-1

Question: Which GI50 (EKVX) does the source give for `CC(CO)[C@H]1OC(=O)C=C2[C@@]13O[C@@H]3[C@H]1OC(=O)[C@@]3(C)[C@H]4O[C@H]4C[C@@]2(C)[C@@H]13` (stereo partly drawn) here?
Answer: The GI50 was 2640 nM (inactive).

Question: And the GI50 (MOLT-4)?
Answer: The GI50 was 488 nM (active).

Question: What about the GI50 (SNB-19) of the same compound?
Answer: The GI50 was 1470 nM (inactive).

Question: And the GI50 (NCI-H522)?
Answer: Its GI50 is 1460 nM (inactive).

Question: And the GI50 (TK-10)?
Answer: Its GI50 is 2070 nM (inactive).

Question: And the GI50 (MCF7)?
Answer: The GI50 was 1070 nM (active).

Question: What about the GI50 (HOP-62) of the same compound?
Answer: The GI50 was 2940 nM (inactive).

Question: And the GI50 (M14)?
Answer: The GI50 was 1190 nM (inactive).

Question: And the GI50 (NCI-H226)?
Answer: Its GI50 is 1270 nM (inactive).

Question: And the GI50 (NCI-H23)?
Answer: The GI50 was 2430 nM (inactive).

Question: What about the GI50 (COLO 205) of the same compound?
Answer: Its GI50 is 1580 nM (inactive).

Question: And the GI50 (IGROV-1)?
Answer: Its GI50 is 1500 nM (inactive).

Question: What about the GI50 (SF-539) of the same compound?
Answer: The GI50 was 1830 nM (inactive).

Question: What about the GI50 (Hs-578T) of the same compound?
Answer: Its GI50 is 2520 nM (inactive).

Question: What about the GI50 (SK-OV-3) of the same compound?
Answer: The GI50 was 3020 nM (inactive).

Question: And the GI50 (SK-MEL-2)?
Answer: The GI50 was 2070 nM (inactive).

Question: And the GI50 (SF-268)?
Answer: The GI50 was 973 nM (active).

Question: What about the GI50 (Malme-3M) of the same compound?
Answer: Its GI50 is 2130 nM (inactive).

Question: What about the GI50 (RPMI-8226) of the same compound?
Answer: Its GI50 is 2220 nM (inactive).

Question: What about the GI50 (OVCAR-3) of the same compound?
Answer: The GI50 was 2170 nM (inactive).

Question: What about the GI50 (NCI-H460) of the same compound?
Answer: The GI50 was 583 nM (active).

Question: And the GI50 (SW-620)?
Answer: The GI50 was 1650 nM (inactive).

Question: And the GI50 (HOP-92)?
Answer: The GI50 was 2710 nM (inactive).

Question: What about the GI50 (A549) of the same compound?
Answer: Its GI50 is 1870 nM (inactive).

Question: And the GI50 (CCRF-CEM)?
Answer: The GI50 was 500 nM (active).

Question: What about the GI50 (ACHN) of the same compound?
Answer: Its GI50 is 843 nM (active).

Question: What about the GI50 (HCT-116) of the same compound?
Answer: Its GI50 is 1070 nM (active).

Question: And the GI50 (HCT-15)?
Answer: Its GI50 is 914 nM.

Question: What about the GI50 (SK-MEL-28) of the same compound?
Answer: The GI50 was 1830 nM (inactive).

Question: And the GI50 (LOX IMVI)?
Answer: The GI50 was 249 nM (active).

Question: And the GI50 (SR)?
Answer: Its GI50 is 288 nM (active).

Question: What about the GI50 (BT-549) of the same compound?
Answer: Its GI50 is 2110 nM (inactive).

Question: And the GI50 (OVCAR-5)?
Answer: The GI50 was 3780 nM (inactive).

Question: And the GI50 (SNB-75)?
Answer: The GI50 was 738 nM (active).

Question: What about the GI50 (UO-31) of the same compound?
Answer: Its GI50 is 1730 nM (inactive).

Question: What about the GI50 (OVCAR-8) of the same compound?
Answer: The GI50 was 2250 nM (inactive).

Question: What about the GI50 (K562) of the same compound?
Answer: Its GI50 is 1170 nM (inactive).

Question: What about the GI50 (SF-295) of the same compound?
Answer: Its GI50 is 1360 nM (inactive).

Question: And the GI50 (HL-60)?
Answer: The GI50 was 343 nM (active).

Question: And the GI50 (SK-MEL-5)?
Answer: Its GI50 is 800 nM (active).

Question: What about the GI50 (UACC-62) of the same compound?
Answer: The GI50 was 1160 nM (inactive).

Question: What about the GI50 (786-0) of the same compound?
Answer: The GI50 was 1570 nM (inactive).

Question: And the GI50 (HT-29)?
Answer: The GI50 was 1190 nM (inactive).

Question: And the GI50 (RXF 393)?
Answer: The GI50 was 1620 nM (inactive).

Question: What about the GI50 (OVCAR-4) of the same compound?
Answer: Its GI50 is 1150 nM (inactive).

Question: What about the GI50 (MDA-MB-435) of the same compound?
Answer: Its GI50 is 1550 nM (inactive).

Question: And the GI50 (U-251)?
Answer: The GI50 was 2150 nM (inactive).

Question: What about the GI50 (PC-3) of the same compound?
Answer: The GI50 was 2960 nM (inactive).

Question: What about the GI50 (MDA-N) of the same compound?
Answer: The GI50 was 1320 nM (inactive).

Question: What about the GI50 (UACC-257) of the same compound?
Answer: The GI50 was 1440 nM (inactive).

Question: And the GI50 (SN12C)?
Answer: Its GI50 is 1920 nM (inactive).

Question: And the GI50 (KM12)?
Answer: The GI50 was 1190 nM (inactive).

Question: And the GI50 (MDA-MB-231)?
Answer: Its GI50 is 2510 nM (inactive).

Question: And the GI50 (A498)?
Answer: Its GI50 is 4100 nM (inactive).

Question: And the GI50 (HCC 2998)?
Answer: The GI50 was 1650 nM (inactive).

Question: What about the GI50 (DU-145) of the same compound?
Answer: The GI50 was 1390 nM (inactive).

Question: And the GI50 (T47D)?
Answer: The GI50 was 2920 nM (inactive).

Question: What about the GI50 (CAKI-1) of the same compound?
Answer: Its GI50 is 1840 nM (inactive).
